Assay results from patent US20230280275A1, “PHOTOACTIVATABLE VIBRATIONAL PROBES AND USES THEREOF” (California Institute of Technology, priority 2021, published 2023).

Key:
[1] = UV-Vis absorption spectra; assay type: physicochemical; conditions: 20 uM in DMSO
Procedure: UV-Vis absorption spectra were recorded on a Varian Cary 50 UV-Vis Spectrophotometer (Agilent).

[2] = Photoactivation (UV-uncaging) monitored by time-series spontaneous Raman spectra; assay type: physicochemical; conditions: 365 nm illumination (15 mW/cm^2); increase of alkyne peak 2226 cm^-1
Procedure: The 365 nm UV light used to activate cyclopropenones comes from a UV handlamp (Analytik Jena UVP EL Series Lamp, UVLS-24, 4 Watt, 2 UV 254/365 nm, typically used for TLC monitoring in organic synthesis). The power of 365 nm UV of this handlamp was measured to be 15 mW/cm2 on samples.
Next, the photo-uncaging kinetics for both 1-cyclo (1) and 2-cyclo (3) were compared. […] With 365 nm lamp illumination, the characteristic peaks of cyclopropenones (~1860 cm^-1) continue to drop while the alkyne peaks (2226 cm^-1) gradually increase for both molecules (FIG. 1D). […] The progression of the UV-activation reactions could also be confirmed by the change in the corresponding absorption spectra (FIG. 6).

[3] = test system: live HeLa cells; test: SRS imaging of live HeLa cells incubated with unmethylated probes before and after 405 nm illumination; assay type: cell-based; conditions: 20 µM, 30 minutes of labeling; 2226 cm^-1 channel after 405 nm
Procedure: FIG. 7 provides exemplary results from SRS imaging of live HeLa cells incubated with 1-cyclo (1, 20 µM, 30 minutes of labeling, top) and Cyclo-Mito (7, 20 µM, 30 minutes of labeling, bottom) at the CH3 (2940 cm^-1) channel, and the expected uncaged alkyne channel (2226 cm^-1) before and after 405 nm illumination. Scale bar: 10 µm.
An integrated laser (picoEMERALD, Applied Physics and Electronics, Inc.) was used as a light source for both pump and Stokes beams. It produces 2 ps pump (tunable from 770 nm - 990 nm, bandwidth 0.5 nm, spectral bandwidth ~ 7 cm-1 ) and Stokes (1031.2 nm, spectral bandwidth 10 cm-1 ) beams with 80 MHz repetition rate. Stokes beam is modulated at 20 MHz by an internal electro-optic modulator. […] Laser powers are monitored through image acquisition by an internal power meter and power fluctuation are controlled within 5% by the laser system. […] Fluorescence images were collected using the same Olympus FV3000 confocal microscope with CW laser excitation (405, 488, 561 and 640 nm, Coherent OBIS LX laser) and standard bandpass filter sets. The correlation coefficients (Pearson’s R value) between SRS images and fluorescence images were calculated using ‘Coloc 2’ tool of ImageJ.

[4] = Spontaneous Raman / hyperspectral SRS spectroscopy of probes and uncaged alkynes; assay type: physicochemical
Description: An integrated laser (picoEMERALD, Applied Physics and Electronics, Inc.) was used as a light source for both pump and Stokes beams. It produces 2 ps pump (tunable from 770 nm - 990 nm, bandwidth 0.5 nm, spectral bandwidth ~ 7 cm-1 ) and Stokes (1031.2 nm, spectral bandwidth 10 cm-1 ) beams with 80 MHz repetition rate. Stokes beam is modulated at 20 MHz by an internal electro-optic modulator. The spatially and temporally overlapped pump and Stokes beams are introduced into an inverted multiphoton laser scanning microscopy (FV3000, Olympus), and then focused onto the sample by a 25X water objective (XLPLN25XWMP, 1.05 N.A., Olympus). Transmitted pump and Stokes beams are collected by a high N.A. condenser lens (oil immersion, 1.4 N.A., Olympus) and pass through a bandpass filter (893/209 BrightLine, 25 mm, AVR Optics) to filter out Stokes beam. A large area (10×10 mm) Si photodiode (S3590-09, Hamamatsu) is used to measure the remaining pump beam intensity. 64 V DC voltage was used on the photodiode to increase saturation threshold and reduce response time. The output current is terminated by a 50 Ω terminator and pre-filtered by an 19.2-23.6-MHz band-pass filter (BBP-21.4+, Mini-Circuits) to reduce laser and scanning noise. The signal is then demodulated by a lock-in amplifier (SR844, Stanford Research Systems) at the modulation frequency. The in-phase X output is fed back to the Olympus IO interface box (FV30-ANALOG) of the microscope. Image acquisition speed is limited by 30 µs time constant set for the lock-in amplifier. Correspondingly, we use 80 µs pixel dwell time, which gives a speed of 8.5 s frame-1 for a 320-by-320-pixel field of view. Laser powers are monitored through image acquisition by an internal power meter and power fluctuation are controlled within 5% by the laser system. 16-bit grey scale images are acquired by Fluoview software. SRS spectra were acquired by fixing the Stokes beam at 1031.2 nm and scanning the pump beam through the designated wavelength range point by point. 10 mM EdU (H2O) sample was used as a standard to give RIE of different probes. Fluorescence images were collected using the same Olympus FV3000 confocal microscope with CW laser excitation (405, 488, 561 and 640 nm, Coherent OBIS LX laser) and standard bandpass filter sets. The correlation coefficients (Pearson’s R value) between SRS images and fluorescence images were calculated using ‘Coloc 2’ tool of ImageJ.
To perform spontaneous Raman spectroscopy, spontaneous Raman spectra were acquired using an upright confocal Raman spectrometer (Horiba Raman microscope; Xplora plus). A 532 nm YAG laser is used to illuminate the sample with a power of 12 mW on sample through a 100 x, N.A. 0.9 objective (MPLANN; Olympus) with 100 µm slit and 500 µm hole. Spectro/Raman shift center was set to be 2000.04 cm-1 . With a 1200 grating, Raman shift ranges from 690.81 cm-1 to 3141.49 cm-1 was acquired to cover whole biological relevant Raman peaks. The acquired spectra were processed by the LabSpec 6 software for baseline correction.
Cyclopropenone caging has been previously adopted for photoactivation and subsequent biorthogonal labeling of fluorophores in fluorescence microscopy. […] Herein the alkyne Raman signal generation from photo-DIBO light-activation was first measured (FIG. 1A). […] Compared to 5-ethynyl-2′-deoxyuridine (EdU), the well-adopted benchmark for Raman intensity quantification, the relative Raman intensity to EdU (RIE) of the strained alkyne DIBO is only 1.8 (Table 1). […] Given this, it is reasoned that diphenylcyclopropenone (i.e. cyclopropenone-caged 1-yne, 1-cyclo, 1, FIG. 1A) should be a better photoactivatable Raman scaffold with higher Raman sensitivity after uncaging. Indeed, UV-uncaging of 1-cyclo (1), which started from a similarly weak Raman peak at 1860 cm^-1 from photo-DIBO, produced an intense sharp peak for 1-yne (2) at 2226 cm^-1 (FIG. 1B, dashed black vs solid blue spectra) with an improved RIE values to about 4

[5] = reported value; cited from earlier work
[6] = test system: live HeLa cells; test: Time lapse (pulse-chase) imaging of retained signal after photoactivation; assay type: cell-based; conditions: after 2 hours of chasing, 0 h = 100%
Procedure: FIG. 20 illustrates labeling signal and specificity evaluation during 2 hours of time lapse imaging in photoactivated Me-Mito-^13C (16) labeled live HeLa cells. Panel (a) is a plot showing quantification of retained signals after 1 hour and 2 hours imaging. The values of signals at 0 h were used as 100% signal reference. n = 6 independent experiments. Data shown as mean ± SEM. Panel (b) includes a series of representative time lapse imaging. The magnified images of the bottom cell (indicated by the dashed white box) are shown. Scale bar: 10 µm. The high mitochondria-labeling specificity of the mitochondria probe was confirmed for relatively long-term pulse-chase tracking applications. More than 85% of activated Me-Mito-^13C (16) signals retained in live HeLa cells after 2 hours of chasing ([…]) with well-maintained mitochondria labeling pattern (FIG. 20, panel b). In live HeLa cells labeled with Me-Mito-^13C (16), 405 nm laser was first used to pulse-activate the selected region of a single cell for 20 seconds (FIG. 5A, CH3, the white dashed box indicates the activation area). Immediately after photoactivation, SRS imaging at 2125 cm^-1 well resolved the distribution of mitochondria only from this activated subcellular region (FIG. 5A, Mito0 min, Pulse), implying high spatial selectivity. […]

Abs [1] | εabs [1] | RIE (relative Raman intensity to EdU) ([4]; 10 mM EdU (H2O) as standard) | Raman Peak ([4]; cell silent region, model systems) | alkyne Raman peak / SRS channel after uncaging ([4]; organelle probes after UV / 405 nm uncaging) | SMILES | uncaging kinetics k [2] | uncaging signals in labeled live cells [3] | quantum yield [5] | activated signals retained [6]
302 nm | 28600 M⁻¹ cm⁻¹ | 0.37 | 1860 cm⁻¹ | – | O=c1c(-c2ccccc2)c1-c1ccccc1 [1-cyclo (1), diphenylcyclopropenone] | 0.0044 s⁻¹ | did not produce any observable uncaging signals | 0.78 | –
– | – | – | – | 2125 cm⁻¹ | Cc1cc(C)c(-[13c]2c(=O)[13c]2-c2c(C)cc(OCCC[P+](c3ccccc3)(c3ccccc3)c3ccccc3)cc2C)c(C)c1.[Br-] [Me-Mito-^13C (16)] | – | – | – | More than 85%
